In patent US20210308089A1, “METHODS OF TREATING AND/OR PREVENTING VIRAL INFECTIONS AND/OR DISEASES CAUSED BY VIRUSES IN A SUBJECT IN NEED THEREOF” (priority 2020, published 2021):

Tested on: patients of the REDUCE-IT and earlier EPA placebo-controlled trials
Assay: Example 3: adverse events by risk ratio, icosapent ethyl vs placebo (candidate categories; infectious disease terms of interest)
Conditions: R-I

With `CC/C=C\C/C=C\C/C=C\C/C=C\C/C=C\CCCC(=O)OCC` [icosapent ethyl, eicosapentaenoic acid ethyl ester] the “NNT: Carotid bruit (AE table)” value was 315, the “NNT: Cholestasis (AE table)” value was −1.67e+07 and the “NNT: Chrohn's Disease (AE table)” value was 2045. For the same compound, the “NNT: Cognitive Decline: Attention disorders and disturbances (AE table)” value was −8362005, the “NNT: Cognitive Decline: Cognitive and attention disorders and disturbances (AE table)” value was −8362005 and the “NNT: Cough (AE table)” value was −69394. The “NNT: Decreased Appetite (AE table)” value was −215, the “NNT: Deep Venous Thromboembolism (AE table)” value was 1364 and the “NNT: Depression: Depressed mood disorders and disturbances (AE table)” value was −340. For the same compound, the “NNT: Depression: Depressive disorders (AE table)” value was −314, the “NNT: Depression: Depressive disorders - Agitated depression (AE table)” value was −2044 and the “NNT: Depression: Depressive disorders - Depression (AE table)” value was −408. For the same compound, the “NNT: Depression: Depressive disorders - Major depression (AE table)” value was −2044, the “NNT: Depression: Depressive disorders - Persistent depressive disorder (AE table)” value was −4088 and the “NNT: Depression: Mood alterations - Depressed mood (AE table)” value was −3344802. For the same compound, the “NNT: Depression: Mood alterations - Depressive symptom (AE table)” value was 4091, the “NNT: Depression: Mood alterations with depressive symptoms (AE table)” value was 4096 and the “NNT: Dermatitis psoriasiform (AE table)” value was −4089. The “NNT: Dermatitis, allergic (AE table)” value was 454, the “NNT: Diabetic Nephropathy (AE table)” value was 4100 and the “NNT: ESRD (AE table)” value was 4092. The “NNT: Ear infection (AE table)” value was 585, the “NNT: Embolism and Thrombosis (AE table)” value was −1358 and the “NNT: Emphysema (AE table)” value was 511. For the same compound, the “NNT: Epilepsy (AE table)” value was −1.67e+07, the “NNT: Erectile dysfunction (AE table)” value was 232 and the “NNT: Furuncle (AE table)” value was 818. The “NNT: Gastroenteritis, viral (AE table)” value was 372, the “NNT: Gastroesophageal reflux (AE table)” value was 682 and the “NNT: Gingivitis (AE table)” value was 818. The “NNT: Glomerulonephritis and Nephrotic Syndrome (AE table)” value was 1023, the “NNT: Guttate psoriasis (AE table)” value was −4089 and the “NNT: Helicobacter infection (AE table)” value was 1023. The “NNT: Hepatitis C (AE table)” value was −4089, the “NNT: Herpes Zoster (AE table)” value was 1371 and the “NNT: Herpes simplex (AE table)” value was 1364. The “NNT: Hyperglycemia (AE table)” value was 186, the “NNT: Hyperkalemia (AE table)” value was 178 and the “NNT: Hypertension (AE table)” value was 171. For the same compound, the “NNT: Hypertensive Crisis (AE Table)” value was 315, the “NNT: Hypokalemia (AE table)” value was −815 and the “NNT: Hypomagnesemia (AE table)” value was 292. For the same compound, the “NNT: Infected bite (AE table)” value was 2046, the “NNT: Influenza (AE table)” value was 515 and the “NNT: Influenza like illness (AE table)” value was 1024. For the same compound, the “NNT: Jaundice cholestatic (AE table)” value was −1022, the “NNT: Large intestine polyps (AE table)” value was 511 and the “NNT: Limb Fractures and Dislocations (AE table)” value was 1024. The “NNT: Lupus (AE table)” value was 4090, the “NNT: Microalbuminuria (AE table)” value was 372 and the “NNT: Migraine (AE table)” value was −584. For the same compound, the “NNT: Mucosal inflammation (AE table)” value was 2046, the “NNT: Multiple Sclerosis (AE table)” value was 4090 and the “NNT: Muscle spasms (AE table)” value was 95. The “NNT: NASH (AE table)” value was 818, the “NNT: NASH for b/l NFS >0.675 (AE table)” value was 273 and the “NNT: NASH+Hepatic Steatosis for NFS >0.675 (AE table)” value was 209. For the same compound, the “NNT: Nasopharyngitis, Mild Severity (AE table)” value was 516, the “NNT: Nephrolithiasis (AE table)” value was −1017 and the “NNT: Nephropathies (AE table)” value was 455. For the same compound, the “NNT: Nephrotic Syndrome (AE table)” value was 4090, the “NNT: Orthopnea (AE table)” value was 1023 and the “NNT: PTSD (AE table)” value was 4092. The “NNT: Pancytopenia (AE table)” value was 1023, the “NNT: Pneumonia (AE table)” value was 293 and the “NNT: Proteinuria (AE table)” value was 455. The “NNT: Psoriasis (AE table)” value was −341, the “NNT: Psoriatic Conditions (AE table)” value was −292 and the “NNT: Psychosis: Psychotic disorder NEC (AE table)” value was 4091. For the same compound, the “NNT: Pulmonary Edema (AE table)” value was 511, the “NNT: Respiratory Failure (AE table)” value was 2050 and the “NNT: Respiratory tract infection (AE table)” value was 1368. For the same compound, the “NNT: Rheumatoid Arthritis (AE table)” value was 1363, the “NNT: Rhinitis (AE table)” value was 682 and the “NNT: Schizophrenia NEC (AE table)” value was 4091. The “NNT: Sepsis (AE table)” value was 455, the “NNT: Severe chronic obstructive pulmonary disease (AE table)” value was 1365 and the “NNT: Severe dermatitis, allergic (AE table)” value was 1363. For the same compound, the “NNT: Severe gastroenteritis (AE table)” value was 1023, the “NNT: Severe sepsis (AE table)” value was 585 and the “NNT: Severe systemic inflammatory response syndrome (AE table)” value was 818. For the same compound, the “NNT: Severe urinary tract infection (AE table)” value was 585, the “NNT: Systemic inflammatory response syndrome (AE table)” value was 682 and the “NNT: Tooth infection (AE table)” value was 455. For the same compound, the “NNT: Ulcerative Colitis (AE table)” value was 4090, the “NNT: Upper respiratory tract infection (AE table)” value was 516 and the “NNT: Vascular hypertensive disorder (AE table)” value was 124. For the same compound, the “NNT: Vulvovaginal mycotic infection (AE table)” value was 682, the “NNT: Wheezing (AE table)” value was 315 and the “Risk Ratio (95% CI): ADHD (AE table)” value was 1.000 (0.141 to 7.097) −1. The “Risk Ratio (95% CI): Allergic sinusitis (AE table)” value was 0.500 (0.092 to 2.729) 3, the “Risk Ratio (95% CI): Alzheimer's Disease (AE table)” value was 1.000 (0.290 to 3.452) −1 and the “Risk Ratio (95% CI): Asthma (AE table)” value was 1.076 (0.742 to 1.560) −1. For the same compound, the “Risk Ratio (95% CI): Atelectasis (AE table)” value was 0.500 (0.243 to 1.030) 3, the “Risk Ratio (95% CI): Bipolar Disease (AE table)” value was 0.333 (0.035 to 3.204) 4 and the “Risk Ratio (95% CI): Blood CPK increased (AE table)” value was 0.684 (0.485 to 0.964) 2. For the same compound, the “Risk Ratio (95% CI): Blood glucose increased (AE table)” value was 0.400 (0.126 to 1.275) 3, the “Risk Ratio (95% CI): Bone Fractures (AE table)” value was 2.000 (0.181 to 22.053) −3 and the “Risk Ratio (95% CI): Bronchiectasis (AE table)” value was 0.500 (0.125 to 1.998) 3. The “Risk Ratio (95% CI): Bronchitis chronic (AE table)” value was 0.667 (0.273 to 1.630) 2, the “Risk Ratio (95% CI): CKD (AE table)” value was 1.123 (0.766 to 1.646) −1 and the “Risk Ratio (95% CI): COPD (AE table)” value was 1.084 (0.837 to 1.405) −1. For the same compound, the “Risk Ratio (95% CI): Carotid bruit (AE table)” value was 0.435 (0.207 to 0.913) 3, the “Risk Ratio (95% CI): Cholestasis (AE table)” value was 1.000 (0.063 to 15.986) −1 and the “Risk Ratio (95% CI): Chrohn's Disease (AE table)” value was 0.333 (0.035 to 3.204) 4. The “Risk Ratio (95% CI): Cognitive Decline: Attention disorders and disturbances (AE table)” value was 1.000 (0.141 to 7.097) −1.
